In patent US9707249B2, “Trehalulose-containing composition, its preparation and use” (SÜDZUCKER AKTIENGESELLSCHAFT MANNHEIM/OCHSENFURT, priority 2009, dated 2017):

Experiments:
[1] = Blood insulin response (insulinemic index, II) after consumption, randomized cross over analysis; assay type: in vivo, human; conditions: ten healthy subjects, 25 g carbohydrate and 250 ml water, 0 to 180 minutes
Experimental: (§1) The effect of trehalulose on the blood glucose response (glycemic index, GI) and the insulin response (insulinemic index, II) was examined in comparison to isomaltulose. The analysis was done as a randomized cross over analysis on ten healthy subjects of both sex. Blood glucose- and insulin-profiles were taken after consumption of isomaltulose or trehalulose (each 25 g carbohydrate and 250 ml water) for an interval of 0 to 180 minutes at the following time points 0, 15, 30, 45, 60, 90, 120, 150 and 180 minutes.

[2] = Blood glucose response (glycemic index, GI) after consumption, randomized cross over analysis; assay type: in vivo, human; conditions: ten healthy subjects, 25 g carbohydrate and 250 ml water, 0 to 180 minutes, compared to isomaltulose
Experimental: as §1

[3] = Stability of trehalulose during preparation (cooking) of jellies; assay type: physicochemical; conditions: when cooking the jellies
Experimental: In the following, four recipes for jellies using as sweeteners a mixture of sucrose and glucose and four recipes using the trehalulose-containing composition, that means vitalose, of the present invention are prepared. The jellies prepared were tested comparatively in storage and TPA-analysis.
In all of the jelly recipes the conventional sweetener combination of sucrose and glucose could be successfully replaced by the trehalulose-containing composition, that means vitalose, of the present invention. The preparation using the trehalulose-containing composition, that means vitalose, was exactly as for the sucrose/glucose compositions.

SMILES | insulin response (II), blood insulin level [1] | blood glucose response (GI), blood glucose level [2] | degradation during preparation [3]
O=C(CO)[C@@H](O)[C@H](O)[C@H](O)CO[C@H]1O[C@H](CO)[C@@H](O)[C@H](O)[C@H]1O [isomaltulose, 6-O-α-D-glucopyranosyl-D-fructose, reference compound] | in parallel to the blood glucose response |  | 
O=C(CO[C@H]1O[C@H](CO)[C@@H](O)[C@H](O)[C@H]1O)[C@@H](O)[C@H](O)[C@H](O)CO [trehalulose, 1-O-α-D-glucopyranosyl-D-fructose] | significantly lower insulin response (II) than isomaltulose | increased and longer sustaining supply of glucose | no degradation of trehalulose was observed
